Laboratory results reported in PubChem BioAssay (NCI).
Several values for one entry are separate records, joined by “and”; a condition that tells them apart may be missing. Identical values can stand only once.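 How tested: cells in 96-well plates exposed to compound for 48 hours at five concentrations. Here, GI50 denotes the concentration required for 50% inhibition of growth. Definition used: TGI = concentration required for complete inhibition of growth.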

What was measured:
Assay in all cases: NCI-60 cell line screen, 48 h
NCI/ADR-RES ovarian = system: NCI/ADR-RES ovarian
MOLT-4 leukemia = system: MOLT-4 leukemia
RPMI-8226 leukemia = system: RPMI-8226 leukemia
SW-620 colon = system: SW-620 colon
ACHN renal = system: ACHN renal
NCI-H226 lung = system: NCI-H226 lung
MALME-3M melanoma = system: MALME-3M melanoma
MDA-MB-435 = system: MDA-MB-435
IGROV1 ovarian = system: IGROV1 ovarian
HCC-2998 colon = system: HCC-2998 colon

Compound	TGI (NCI/ADR-RES ovarian) [µM]	TGI (MOLT-4 leukemia)	TGI (RPMI-8226 leukemia)	TGI (SW-620 colon) [µM]	TGI (ACHN renal) [µM]	TGI (NCI-H226 lung)	TGI (MALME-3M melanoma) [µM]	TGI (MDA-MB-435)	TGI (IGROV1 ovarian)	TGI (HCC-2998 colon)	GI50 (NCI-H226 lung)	GI50 (IGROV1 ovarian)
CN1C(=O)[C@](C)(Cc2ccc(F)cc2)N(C(=O)OC(C)(C)C)[C@@H]1C(C)(C)C	44.8	40.6 µM	49.4 µM	> 100	> 100	67.3 µM	> 100	> 100 µM	> 100 µM	76.2 µM	–	–
Cc1cc(S(=O)(=O)Nc2n[nH]c(N)n2)c(S)cc1Cl	> 10	> 10 µM	> 10 µM	> 10	> 10	> 10 µM	> 10	> 10 µM	> 10 µM	> 10 µM	–	–
O=C(Nc1ccccc1C(=O)O)C(=Cc1ccccc1O)NC(=O)c1ccccc1	> 100	> 100 µM	> 100 µM	> 100	> 100	> 100 µM	> 100	> 100 µM	> 100 µM	> 100 µM	–	–
Cc1cc(=O)oc2c(CN(CCCl)CCCl)c(O)ccc12	> 100	98.8 µM	63.6 µM	> 100	> 100	> 100 µM	> 100	> 100 µM	> 100 µM	> 100 µM	–	–
CCOC(=O)CCN1C(=O)c2c(NC(=O)C(=O)O)cccc2S1(=O)=O	> 100	> 100 µM	> 100 µM	> 100	> 100	> 100 µM	> 100	> 100 µM	> 100 µM	> 100 µM	–	–
COc1cc2c3c4[n+](cc2c(OC)c1OC)CCC4CCC3 (stereo unspecified)	> 100	> 100 µM	> 100 µM	> 100	> 100	> 100 µM	> 65.8	> 100 µM	> 100 µM	> 100 µM	–	–
CCN(CC)CCC1(C(=O)OC)SCCc2ccc(C)cc21 (stereo unspecified)	> 100	> 100 µM	> 100 µM	> 100	> 100	> 100 µM	> 100	> 100 µM	> 100 µM	> 100 µM	–	–
CC(=O)OCC12C(OC(C)=O)C[C@@H](C)C3(CC(c4ccoc4)OC3=O)C1CCC(OC(C)=O)C21CO1 (stereo partly specified)	> 100	> 100 µM	> 100 µM	> 100	> 100	> 100 µM	> 100	> 100 µM	> 100 µM	> 100 µM	–	–
Oc1[nH]c2ccccc2c1N=NC(=S)NCc1ccccn1	> 23.3	4.9 µM	53.9 µM	22.3	2.25	10.5 µM	17.9	17.4 µM	13.9 µM	16.5 µM	–	–
NC(=O)c1nnc2c(F)cccc2c1N	> 100	> 100 µM	> 100 µM	> 100	> 100	> 100 µM	> 100	> 100 µM	> 100 µM	> 100 µM	–	–
N#Cc1c(NC(=S)Nc2ccccc2)sc2c1CCCC2	> 100	> 100 µM	> 100 µM	> 100	> 100	> 100 µM	> 100	> 100 µM	> 100 µM	> 100 µM	–	–
CN1CCN(C2CC(=O)c3c(Cl)sc(Cl)c32)CC1 (stereo unspecified)	> 59	> 51.9 µM	15.5 µM	22.2	36.6	> 65.3 µM	> 50.3	16.5 µM	> 25.6 µM	24.6 µM	–	–
CC(=O)OC1COC(n2c(N)c(C#N)c(-c3ccccc3)c(C#N)c2=S)C(OC(C)=O)C1OC(C)=O (stereo unspecified)	> 100	54.3 µM and 75.4 µM	58.7 µM and 68.3 µM	> 100	> 100	> 100 µM	> 100	93.6 µM and 61.2 µM	> 100 µM	90.1 µM and 56.9 µM	41.6 µM and 89.4 µM	–
CC(C)(CO)Nc1c(O)c2c(c(O)c1Cl)C(=O)C=CC2=O	3.65	3.3 µM	4.82 µM	1.37	3.08	4.26 µM	3.33	2.38 µM	2.92 µM	2.75 µM	–	–
C/C(=N/NC(=O)c1ccccc1Nc1ccccc1C(=O)N/N=C(\C)c1ccc(C)cc1)c1ccc(C)cc1	> 100	> 100 µM	> 100 µM	> 100	> 100	> 100 µM	> 100	> 100 µM	> 100 µM	> 100 µM	–	–
CC1CC2OC(=N)C1(C#N)C2(C#N)C#N (stereo unspecified)	> 100	> 100 µM	48 µM	> 100	> 100	> 100 µM	48.9	> 100 µM	51.4 µM	34.4 µM	–	–
Fc1sc2c(c1F)C1CCC2C1 (stereo unspecified)	> 100	86.8 µM	87.1 µM	> 100	> 100	> 100 µM	> 100	> 100 µM	> 100 µM	> 100 µM	–	–
COc1ccc(Cn2nc(OCc3ccccc3)c3cc([N+](=O)[O-])ccc32)cc1	> 100	> 100 µM	> 100 µM	> 100	> 100	> 100 µM	> 100	> 100 µM	> 100 µM	> 100 µM	–	–

Compound	TGI (NCI/ADR-RES ovarian) [µM]	TGI (MOLT-4 leukemia)	TGI (RPMI-8226 leukemia)	TGI (SW-620 colon) [µM]	TGI (ACHN renal) [µM]	TGI (NCI-H226 lung)	TGI (MALME-3M melanoma) [µM]	TGI (MDA-MB-435)	TGI (IGROV1 ovarian)	TGI (HCC-2998 colon)	GI50 (NCI-H226 lung)	GI50 (IGROV1 ovarian)
[O-][n+]1cc(SCc2ccccc2)ncc1SCc1ccccc1	> 10	> 10 µM	> 10 µM	–	> 10	> 10 µM	> 10	> 10 µM	> 10 µM	> 10 µM	–	–
CCOC(=O)N1c2c(c3ccccc3n2C(=O)OCC)C(=O)C(OC)N1C(=O)OCC (stereo unspecified)	62.1	50.8 µM	> 100 µM	> 100	92.7	> 100 µM	69.8	> 100 µM	> 100 µM	> 100 µM	–	–
COc1ccc(C2CCc3c(cnc4nc(N)nc(N)c34)C2)cc1 (stereo unspecified)	> 100	> 100 µM	> 100 µM	> 100	51	> 100 µM	> 100	> 100 µM	> 100 µM	> 100 µM	–	–
Cc1cccc2c1C(=O)/C(=C/c1ccccc1C(=O)O)C2	> 100	> 100 µM	> 100 µM	> 100	> 100	> 100 µM	> 100	> 100 µM	> 100 µM	> 100 µM	–	–
NC(=O)c1ccc(S(=O)(=NS(=O)(=O)c2ccccc2)c2ccc(C(N)=O)cc2)cc1	> 100	> 100 µM	> 100 µM	> 100	> 100	> 100 µM	> 100	> 100 µM	> 100 µM	> 100 µM	–	–
COc1ccc2c(-c3csc(-c4c[nH]c5ccccc45)n3)c[nH]c2c1	> 81.6	19.8 µM	> 24.5 µM	> 100	16.9	45.4 µM	32.1	> 100 µM	> 58.2 µM	30.4 µM	–	–
COc1ccc(C2=C(N)c3cc(OC)ccc3C2=O)cc1	> 100	> 100 µM	> 100 µM	> 100	> 100	> 100 µM	> 100	> 100 µM	> 100 µM	> 100 µM	–	–
CC(=O)c1nc(C#N)c(N)o1	> 100	> 100 µM	> 100 µM	> 100	> 100	> 100 µM	> 100	> 100 µM	> 100 µM	> 100 µM	–	–
Cc1cc(C)c(N)c(CO)c1	> 100	> 100 µM	> 100 µM	> 100	> 100	1.73 µM and 4.56 µM	> 100	> 100 µM	33.3 µM and 46.9 µM	> 100 µM	0.236 µM and 1.26 µM	4.25 µM and 10.2 µM
Nc1nn2cc(-c3ccccc3)[n+](CC(=O)c3ccccc3)c2s1	> 100	51.2 µM	37.3 µM	55.9	> 100	> 100 µM	27.3	> 100 µM	> 100 µM	31.7 µM	–	–
C[S+](C)C1(c2ccccc2)C(=O)c2ccccc2C1=O	> 100	> 100 µM	> 100 µM	> 100	> 100	> 100 µM	> 100	> 100 µM	> 100 µM	42.8 µM	–	–
CO/C=C(/C(=O)OC)c1ccccc1[C@H]1C[C@@H]1c1ccccc1	68.2	> 100 µM	38.1 µM	–	60.6	74.4 µM	41.3	43.3 µM	58.1 µM	76.2 µM	–	–
O=C1CCc2c(sc3ncnc(Nc4cccc(Br)c4)c23)C1	> 26.7	> 27 µM	> 20.3 µM	11.6	8.04	14.8 µM	4.85	3.82 µM	12.6 µM	15 µM	–	–
CSC(=N/N=C(\C)c1ccc(S(=O)(=O)N(C)c2ccccc2)cc1)SC	> 100	> 100 µM	> 100 µM	> 100	> 100	> 100 µM	> 100	> 100 µM	> 100 µM	> 100 µM	–	–
CCOC(=O)/C=C/C(Br)=C(Br)/C=C/C(=O)OCC	64.8	5.93 µM	15.6 µM	5.31	25.8	56.1 µM	17.5	18.1 µM	30.1 µM	49 µM	–	–
CC(=O)N1C(=O)/C(=C\C(=O)c2ccc(Cl)cc2)c2ccccc21	53.5	9.09 µM	97.1 µM	61.1	23.6	44.5 µM	32.6	36.5 µM	33.2 µM	31.5 µM	–	–
CC(=O)c1c2c(cc3c1CCC3)CCC2	> 100	> 100 µM	> 100 µM	> 100	> 100	> 100 µM	> 100	> 100 µM	> 100 µM	> 100 µM	–	–
C[C@@H]1CC(=O)[C@@]2(C)[C@](O)(CCC3O[C@]32C)[C@@]12CC(c1ccoc1)OC2=O (stereo partly specified)	> 100	58.5 µM	> 100 µM	> 100	> 100	> 100 µM	> 100	> 100 µM	> 100 µM	> 100 µM	–	–
